Data taken from patent EP0738149B1 (priority 1994, dated 1995).
Where a name gives a salt, the structure may show the parent alone.

What was measured:
mice = assay: Maximal electroshock (MES) model in mice, i.p.;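 as to all read-outs here: Electroshock-induced convulsion model serving to demonstrate antiepileptic efficacy against generalized and partial seizures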; type: in vivo; settings: for ED50: Mus musculus, ip; for activity in the MES model in mice: statement in words
rats [1] = assay: Maximal electroshock (MES) model in rats, p.o.;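 as to all read-outs here: rat MES model gauging antiepileptic efficacy versus generalized and partial seizures after oral dosing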; type: in vivo; settings: rats, p.o., Table 15; for ED50: Rattus norvegicus, po, read-out: RATS MES 50
[2] = Neurotoxicity in mice (rotorod ataxia test), i.p.; settings: mouse, in vivo, ip
Procedure: (§1) Neurotoxicity of the claimed agents was also assessed in mice (i.p. administration) by the rotorod ataxia test and/or in rats (p.o. administration) by positional sense test and gait stance test. […] The term quantitating the neurotoxicity is the medial neurological toxic dose (TD50), was determined in the above tests.

[3] = Neurotoxicity in rats (positional sense test and gait stance test), p.o.; settings: rat, in vivo, po
Procedure: as §1

rats [4] = assay: as above; settings: rats, p.o.; Table 16
Procedure: as §1

male ICR albino mice = assay: Hypobaric hypoxia survival time in mice; type: in vivo
Procedure: Dessicator B was disconnected and allowed to equilibrate with room air whilst dessicator A was evacuated to a pressure of 100mmHg. […] The survival time from the moment of induction of hypoxia to the time of cessation of respiration was recorded for each mouse for a maximum of 15 minutes after which time room air was reintroduced to dessicator B. Survivors were monitored for signs of lethargy or vitality.
Effect of drug treatment was assessed as the percent of the survival time of the drug treated group with respect to the saline injected or vehicle injected control group. Control groups were run twice, before and after each experimental group and consisted of 12-16 mice in groups of 4 mice. Each experimental group always consisted of 4 mice to ensure a constant residual volume of oxygen in all tests. The effect of each dose of test drug was determined in duplicate i.e. two groups of 4 mice.
All drugs were administered intra-peritoneally at the dose indicated one hour prior to exposure to hypoxia.

[5] = 50 mg/kg ip one hour prior to hypoxia
[6] = 100 mg/kg ip one hour prior to hypoxia

Row | SMILES | ED50 (mice; Table 15) [mg/kg] | TD50 ([2]; MICE TD50, mice, Table 15) [mg/kg] | TD50 [3] [mg/kg] | RATS MES 50 (rats [1]) [mg/kg] | also measured
1 | NC(=O)CNC1CCCc2ccccc21 (racemic) [Example 4, (rac)-N-(2-Acetamido)-1-aminotetralin] |  |  |  |  | MICE MES ED50 (mice; i.p., Table 15): <100 mg/kg
2 | CCCC(=O)NC1CCc2ccccc21 (racemic) [Example 11, (rac)-N-Butyryl-1-aminoindan] | < 300 | < 300 | > 50 |  | ED50 (rats [1]): < 50 mg/kg
3 | CN(C)C1CCc2ccccc21 (racemic) [Example 15, (rac)-N,N-Dimethyl-1-aminoindan.HCl] |  | < 100 | > 50 | 50 | TD50 ([2]; MICE TD50, mice, Table 16): < 100 mg/kg; RATS TD50 (rats [4]): >50 mg/kg
4 | c1ccc(CNC2CCc3ccccc32)cc1 (racemic) [Example 16, (rac)-N-Benzyl-1-aminoindan.HCl] | < 50 |  | > 50 | 50 | 
5 | CC(=O)NC1CCc2cccc(C)c21 (racemic) [Example 20, (rac)-7-Methyl-N-acetyl-1-aminoindan] | < 100 |  | > 50 |  | ED50 (rats [1]): < 50 mg/kg; TD50 ([2]; MICE TD50): 100 mg/kg
6 | COc1ccc2c(c1)C(N)CC2 (racemic) [Example 25, (rac)-6-Methoxy-1-aminoindan.HCl] | < 100 | > 100 |  | 50 | 
7 | Cc1cccc2c1C(N)CC2 (racemic) [Example 28, (rac)-7-Methyl-1-aminoindan.HCl] | < 100 | < 100 | > 50 | <50 | PROTECTION % OF RESPECTIVE CONTROL (male ICR albino mice; [5]): 361±106 % OF RESPECTIVE CONTROL; PROTECTION % OF RESPECTIVE CONTROL (male ICR albino mice; [6]): 941±34 % OF RESPECTIVE CONTROL
8 | COc1ccc2c(c1OC)CCC2N (racemic) [Example 31, (rac)-4,5-Dimethoxy-1-aminoindan.HCl] | < 100 | < 100 | > 50 |  | activity in the MES model in mice (mice): showed activity
9 | NC1CCc2ccc(O)cc21 (racemic) [Example 34, (rac)-6-Hydroxy-1-aminoindan.HCl] | < 300 | > 300 |  |  | activity in the MES model in mice (mice): showed activity
10 | Cc1ccc2c(c1)CCC2N (racemic) [Example 38, (rae)-5-Methyl-1-aminoindan.HCl] | < 100 | < 100 | > 50 | 50 | 
11 | Cc1cc(C)c2c(c1)C(C)CC2N.Cl (racemic) [Example 41, (rac)-3,5,7-Trimethyl-1-aminoindan.HCl] |  |  |  |  | PROTECTION % OF RESPECTIVE CONTROL (male ICR albino mice; [5]): 187±41 % OF RESPECTIVE CONTROL; PROTECTION % OF RESPECTIVE CONTROL (male ICR albino mice; [6]): 644±316 % OF RESPECTIVE CONTROL
12 | NC1CCc2cccc(O)c21 (racemic) [Example 42, (rac)-7-Hydroxy-1-aminoindan.HCl] |  |  | > 50 | <50 | PROTECTION % OF RESPECTIVE CONTROL (male ICR albino mice; [5]): 179±170 % OF RESPECTIVE CONTROL; PROTECTION % OF RESPECTIVE CONTROL (male ICR albino mice; [6]): 228±119 % OF RESPECTIVE CONTROL
